Results: the CheMixHub viscosity set

Assay: xn = mol fraction of the nth substance listed

CCC(C)(C)OC + CO
298.15 K, 101.33 kPa
Conditions	viscosity [mPa·s]
x1 = 0.005	0.55
x1 = 0.0339	0.554
x1 = 0.0488	0.556
x1 = 0.0714	0.557
x1 = 0.1129	0.555
x1 = 0.1508	0.552
x1 = 0.1987	0.546
x1 = 0.2009	0.546
x1 = 0.2338	0.541
x1 = 0.2861	0.532
x1 = 0.3409	0.524
x1 = 0.379	0.516
x1 = 0.4252	0.508
x1 = 0.4676	0.5
x1 = 0.5142	0.491
x1 = 0.5503	0.486
x1 = 0.6236	0.477
x1 = 0.6574	0.473
x1 = 0.6944	0.468
x1 = 0.7437	0.462
x1 = 0.7936	0.457
x1 = 0.8642	0.45
x1 = 0.9029	0.446

BrC(Br)Br + CS(C)=O
Conditions	viscosity [mPa·s]
298 K, 101.3 kPa, x1 = 0.0899	2.155
298 K, 101.3 kPa, x1 = 0.1708	2.427
298 K, 101.3 kPa, x1 = 0.3448	2.816
298 K, 101.3 kPa, x1 = 0.4446	2.945
298 K, 101.3 kPa, x1 = 0.5453	2.944
298 K, 101.3 kPa, x1 = 0.6466	2.762
298 K, 101.3 kPa, x1 = 0.7553	2.544
298 K, 101.3 kPa, x1 = 0.8619	2.192
318 K, 101.33 kPa, x1 = 0.1216	1.568
318 K, 101.33 kPa, x1 = 0.2541	1.787
318 K, 101.33 kPa, x1 = 0.443	1.978
318 K, 101.33 kPa, x1 = 0.5441	1.982
318 K, 101.33 kPa, x1 = 0.5955	1.983
318 K, 101.33 kPa, x1 = 0.8193	1.716

CC(=O)c1ccc(Cl)cc1 + CNC(C)=O
308.15 K, 101 kPa
Conditions	viscosity [mPa·s]
x1 = 0.0644	3.273
x1 = 0.1311	3.223
x1 = 0.2036	3.141
x1 = 0.2825	3.035
x1 = 0.3696	2.906
x1 = 0.4664	2.765
x1 = 0.5774	2.604
x1 = 0.7003	2.452
x1 = 0.8405	2.331
